In patent US12528786B2, “Plasma kallikrein inhibitors” (Merck Sharp & Dohme LLC, priority 2020, dated 2026) one finds IC50 data, which are given here for 14 compounds.

Each structure is given as a SMILES string.

The target in this test is T1, Human plasma kallikrein (Homo sapiens, UniProt P03952).
T1 construct: yields a heavy chain (371 amino acids) and a light chain (248 amino acids); purchased Enzyme Research Laboratories
T1 sequence (P03952 391-638 limits assumed): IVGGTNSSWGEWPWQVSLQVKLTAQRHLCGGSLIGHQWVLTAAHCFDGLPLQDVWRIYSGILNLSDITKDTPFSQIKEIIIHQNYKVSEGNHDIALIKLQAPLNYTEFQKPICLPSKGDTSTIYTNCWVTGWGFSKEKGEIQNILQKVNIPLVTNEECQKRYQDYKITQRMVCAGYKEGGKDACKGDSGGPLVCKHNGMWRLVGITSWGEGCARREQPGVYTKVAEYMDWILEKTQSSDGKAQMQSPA
T1 sequence (P03952 20-390 partner limits assumed): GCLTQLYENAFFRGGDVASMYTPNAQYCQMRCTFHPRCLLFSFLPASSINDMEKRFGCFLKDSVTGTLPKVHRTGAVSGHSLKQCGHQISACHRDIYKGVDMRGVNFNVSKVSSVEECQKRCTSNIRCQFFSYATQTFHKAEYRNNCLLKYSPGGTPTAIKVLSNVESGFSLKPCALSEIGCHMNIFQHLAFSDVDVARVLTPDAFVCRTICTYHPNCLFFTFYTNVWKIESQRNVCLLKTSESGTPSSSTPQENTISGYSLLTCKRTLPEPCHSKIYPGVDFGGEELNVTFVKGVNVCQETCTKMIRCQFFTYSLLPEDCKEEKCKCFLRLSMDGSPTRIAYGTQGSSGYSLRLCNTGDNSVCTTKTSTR
The test is described as follows: Kallikrein Assay (fluorogenic substrate hydrolysis, AFC release). The class given is biochemical. To be noted: purified Human plasma kallikrein 0.5 nM; substrate Acetyl-K—P—R-AFC 100 mM; 50 mM HEPES pH 7.4. The method, boiled down: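 Purified human plasma kallikrein (0.5 nM final) with Acetyl-K-P-R-AFC substrate (final ≤0.2 Km) in 50 mM HEPES pH 7.4, 150 mM NaCl, 5 mM CaCl2, 0.1% PEG 8000, after enzyme–inhibitor equilibration; room temperature or 37° C. AFC fluorescence (405 Ex/510 Em nm) under linear conditions; IC50 by four-parameter fit, Ki via Cheng-Prusoff.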
On to `Cc1ccc(C#N)c([C@H]2C[C@@H](NC(=O)c3cn(C(C)c4cnc(N5C[C@H]6C[C@H]6C5=O)c(C)c4C)nn3)C2)c1` (single isomer, unassigned) [Example 114, N-((cis)-3-(2-cyano-5-methylphenyl)cyclobutyl)-1-((S or R)-1-(4,5-dimethyl-6-((1R,5S)-2-oxo-3-azabicyclo[3.1.0]hexan-3-yl)pyridin-3-yl)ethyl)-1H-1,2,3-triazole-4-carboxamide], for which the IC50 (commonly the concentration that inhibits the measured activity by half) was determined as 6.1 nM. The result for `Cc1ccc(C#N)c([C@H]2C[C@@H](NC(=O)c3cn(C(C)c4cnc(N5C[C@H]6C[C@H]6C5=O)c(C)n4)nn3)C2)n1` (single isomer, unassigned) [Example 115, N-((cis)-3-(3-cyano-6-methylpyridin-2-yl)cyclobutyl)-1-((R or S)-1-(6-methyl-5-((1R,5S)-2-oxo-3-azabicyclo[3.1.0]hexan-3-yl)pyrazin-2-yl)ethyl)-1H-1,2,3-triazole-4-carboxamide] reads 22.4 nM; that for `Cc1ccc(C#N)c([C@H]2C[C@@H](NC(=O)c3cn(C(C)c4cnc(N5C[C@H]6C[C@H]6C5=O)c(C)n4)nn3)C2)n1` (single isomer, unassigned) [Example 116, N-((cis)-3-(3-cyano-6-methylpyridin-2-yl)cyclobutyl)-1-((S or R)-1-(6-methyl-5-((1R,5S)-2-oxo-3-azabicyclo[3.1.0]hexan-3-yl)pyrazin-2-yl)ethyl)-1H-1,2,3-triazole-4-carboxamide], 6.9 nM. `Cc1cc(N2C[C@H]3C[C@H]3C2=O)nnc1C(C)n1cc(C(=O)N[C@H]2C[C@@H](c3cc(Cl)ccc3C#N)C2)nn1` (single isomer, unassigned) [Example 117, N-((cis)-3-(5-chloro-2-cyanophenyl)cyclobutyl)-1-((R or S)-1-(4-methyl-6-((1R,5S)-2-oxo-3-azabicyclo[3.1.0]hexan-3-yl)pyridazin-3-yl)ethyl)-1H-1,2,3-triazole-4-carboxamide] gave an IC50 of 968 nM. This IC50 is about 140-fold higher than that of the compound before. For `Cc1cc(N2C[C@H]3C[C@H]3C2=O)nnc1C(C)n1cc(C(=O)N[C@H]2C[C@@H](c3cc(Cl)ccc3C#N)C2)nn1` (single isomer, unassigned) [Example 118, N-((cis)-3-(5-chloro-2-cyanophenyl)cyclobutyl)-1-((S or R)-1-(4-methyl-6-((1R,5S)-2-oxo-3-azabicyclo[3.1.0]hexan-3-yl)pyridazin-3-yl)ethyl)-1H-1,2,3-triazole-4-carboxamide], the IC50 is 4.7 nM. As for `Cc1ccc(C#N)c([C@H]2C[C@@H](NC(=O)c3cn(C(C)c4cnc(N5C[C@H]6C[C@H]6C5=O)c(F)c4C)nn3)C2)c1` (single isomer, unassigned) [Example 119, N-((cis)-3-(2-cyano-5-methylphenyl)cyclobutyl)-1-((R or S)-1-(5-fluoro-4-methyl-6-((1R,5S)-2-oxo-3-azabicyclo[3.1.0]hexan-3-yl)pyridin-3-yl)ethyl)-1H-1,2,3-triazole-4-carboxamide], 26 nM corresponded to half-maximal inhibition (IC50). The result for `Cc1ccc(C#N)c([C@H]2C[C@@H](NC(=O)c3cn(C(C)c4cnc(N5C[C@H]6C[C@H]6C5=O)c(F)c4C)nn3)C2)c1` (single isomer, unassigned) [Example 120, N-((cis)-3-(2-cyano-5-methylphenyl)cyclobutyl)-1-((S or R)-1-(5-fluoro-4-methyl-6-((1R,5S)-2-oxo-3-azabicyclo[3.1.0]hexan-3-yl)pyridin-3-yl)ethyl)-1H-1,2,3-triazole-4-carboxamide] reads 0.6 nM. Consider `COc1nc(C(C)n2cc(C(=O)N[C@H]3C[C@@H](c4cc(Cl)ccc4C#N)C3)nn2)cnc1N1C[C@H]2C[C@H]2C1=O` (single isomer, unassigned) [Example 121, N-((cis)-3-(5-chloro-2-cyanophenyl)cyclobutyl)-1-((R or S)-1-(6-methoxy-5-((1R,5S)-2-oxo-3-azabicyclo[3.1.0]hexan-3-yl)pyrazin-2-yl)ethyl)-1H-1,2,3-triazole-4-carboxamide], for which inhibition was half-maximal at 6.7 nM (IC50). For `COc1nc(C(C)n2cc(C(=O)N[C@H]3C[C@@H](c4cc(Cl)ccc4C#N)C3)nn2)cnc1N1C[C@H]2C[C@H]2C1=O` (single isomer, unassigned) [Example 122, N-((cis)-3-(5-chloro-2-cyanophenyl)cyclobutyl)-1-((S or R)-1-(6-methoxy-5-((1R,5S)-2-oxo-3-azabicyclo[3.1.0]hexan-3-yl)pyrazin-2-yl)ethyl)-1H-1,2,3-triazole-4-carboxamide], the IC50 came out at 3 nM. The result for `Cc1c(C(C)n2cc(C(=O)NC3CC(c4cccc(Cl)c4)C3O)nn2)cnc(N2C[C@H]3C[C@H]3C2=O)c1F` (single isomer, unassigned) [Example 123, N-((1R,2R,3R or 1S,2S,3S)-3-(3-chlorophenyl)-2-hydroxycyclobutyl)-1-((R or S)-1-(5-fluoro-4-methyl-6-((1R,5S)-2-oxo-3-azabicyclo[3.1.0]hexan-3-yl)pyridin-3-yl)ethyl)-1H-1,2,3-triazole-4-carboxamide] reads 41.3 nM. The same measure for `Cc1c(C(C)n2cc(C(=O)NC3CC(c4cccc(Cl)c4)C3O)nn2)cnc(N2C[C@H]3C[C@H]3C2=O)c1F` (single isomer, unassigned) [Example 124, N-((1S,2S,3S or 1R,2R,3R)-3-(3-chlorophenyl)-2-hydroxycyclobutyl)-1-((R or S)-1-(5-fluoro-4-methyl-6-((1R,5S)-2-oxo-3-azabicyclo[3.1.0]hexan-3-yl)pyridin-3-yl)ethyl)-1H-1,2,3-triazole-4-carboxamide]: 4.5 nM; for `Cc1c(C(C)n2cc(C(=O)NC3CC(c4cccc(Cl)c4)C3O)nn2)cnc(N2C[C@H]3C[C@H]3C2=O)c1F` (single isomer, unassigned) [Example 125, N-((1R,2R,3R or 1S,2S,3S)-3-(3-chlorophenyl)-2-hydroxycyclobutyl)-1-((S or R)-1-(5-fluoro-4-methyl-6-((1R,5S)-2-oxo-3-azabicyclo[3.1.0]hexan-3-yl)pyridin-3-yl)ethyl)-1H-1,2,3-triazole-4-carboxamide]: 130 nM. Take `Cc1c(C(C)n2cc(C(=O)NC3CC(c4cccc(Cl)c4)C3O)nn2)cnc(N2C[C@H]3C[C@H]3C2=O)c1F` (single isomer, unassigned) [Example 126, N-((1S,2S,3S or 1R,2R,3R)-3-(3-chlorophenyl)-2-hydroxycyclobutyl)-1-((S or R)-1-(5-fluoro-4-methyl-6-((1R,5S)-2-oxo-3-azabicyclo[3.1.0]hexan-3-yl)pyridin-3-yl)ethyl)-1H-1,2,3-triazole-4-carboxamide]: the IC50 was 414 nM. The result for `Cc1ccc(C#N)c([C@H]2C[C@@H](NC(=O)c3cn(C(C)c4nnc(N5C[C@H]6C[C@H]6C5=O)c(C)c4C)nn3)C2)n1` (single isomer, unassigned) [Example 127, N-((cis)-3-(3-cyano-6-methylpyridin-2-yl)cyclobutyl)-1-((R or S)-1-(4,5-dimethyl-6-((1R,5S)-2-oxo-3-azabicyclo[3.1.0]hexan-3-yl)pyridazin-3-yl)ethyl)-1H-1,2,3-triazole-4-carboxamide] reads 702 nM.
